Where a name gives a salt, the structure may show the parent alone. Blank lines part the entries; values can stand above or below the compound they belong to.
Key:
α1β3γ2 GABAA/BzR [1] = target: T1, α1β3γ2 GABAA/BzR (Homo sapiens, UniProt P14867+P18507); details: binding; cited from earlier work
[2] = system: alcohol preferring (P) rats; details: 15–60 mg/kg, comparable with chlordiazepoxide; cited from earlier work
other receptors = assay: NIMH supported PDSP screen; type: binding
α1β3γ2 GABAA/BzR [3] = target: T1, α1β3γ2 GABAA/BzR; assay: [3H]flunitrazepam competition binding, α1β3γ2; details: for selectivity for the α1β3γ2 subtype: enantiomeric sec-butyl esters
α5β3γ2 GABAA/BzR = α5β3γ2 GABAA/BzR (Homo sapiens, UniProt P18507+P31644); assay: [3H]flunitrazepam competition binding, α5β3γ2
α2β3γ2 GABAA/BzR = α2β3γ2 GABAA/BzR (Homo sapiens, UniProt P18507+P47869); assay: [3H]flunitrazepam competition binding, α2β3γ2
BzR = assay: Binding to BzR, overall statement; parameters: species or system human; details: Boc protection at position-9

Structure (SMILES): CCCOc1cc2c(cn1)[nH]c1ccccc12 [2(3-PBC), 3-propoxy-β-carboline hydrochloride]
- selectivity for the α1 site over the α5 subtype (α1β3γ2 GABAA/BzR [1]): over 150 fold
- selectivity for the α1 subtype over the α2 and α3 receptors (α1β3γ2 GABAA/BzR [1]): 10 fold
- effects in the plus maze [2]: anxiolytic effects
- interactions at other receptors (other receptors): neither βCCT, 3PBC, nor WYS8 exhibited significant interactions at other receptors

Structure (SMILES): C#Cc1ccc2[nH]c3cnc(C(=O)OC(C)(C)C)cc3c2c1 [7(WYS8), 6-Ethynl-9H-β-carboline-3-carboxylic acid t-butyl ester]
- interactions at other receptors (other receptors): neither βCCT, 3PBC, nor WYS8 exhibited significant interactions at other receptors

- selectivity for α1 isoforms over α5 isoforms (α1β3γ2 GABAA/BzR [3]; binding): ~70 fold
Structure (SMILES): C[C@@H](OC(=O)c1cc2c(cn1)[nH]c1ccccc12)C(F)(F)F [compound 22, (R)-1,1,1-Trifluoroisopropyl β-carboline-3-carboxylate]

Structure (SMILES): CC[C@H](C)OC(=O)c1cc2c(cn1)[nH]c1ccccc12 [compound 23, (S)-β-Carboline-3-carboxylic acid sec-butyl ester]
- Ki (α5β3γ2 GABAA/BzR): 1440 nM
- selectivity for the α1β3γ2 subtype (α1β3γ2 GABAA/BzR [3]; binding): ~4 fold

Structure (SMILES): CC[C@@H](C)OC(=O)c1cc2c(cn1)[nH]c1ccccc12 [compound 24, (R)-β-Carboline-3-carboxylic acid sec-butyl ester]
- Ki (α2β3γ2 GABAA/BzR): 32.5 nM
- selectivity for the α1β3γ2 subtype (α1β3γ2 GABAA/BzR [3]; binding): ~4 fold

- Ki (α1β3γ2 GABAA/BzR [3]): 830 nM
Structure (SMILES): c1ccc(COc2cc3c4ccccc4nc-3c[nH]2)cc1 [compound 35, 3-benzyloxy β-carboline]

- Ki (α5β3γ2 GABAA/BzR): ≥ 1000 nM
Structure (SMILES): CC(C)COc1cc2c(cn1)[nH]c1ccccc12 [compound 37]

- binding to BzR (BzR): did not bind to BzR at all
Structure (SMILES): C#Cc1ccc2c(c1)c1cc(C(=O)OC(C)(C)C)ncc1n2C(=O)OC(C)(C)C [compound 40]

- binding to BzR (BzR): did not bind to BzR at all
Structure (SMILES): CC(C)(C)OC(=O)c1cc2c3cc(I)ccc3n(C(=O)OC(C)(C)C)c2cn1 [compound 41]

From paper PMC2972656 (Bioorganic & medicinal chemistry, 2010)
